Measured values from patent US20190365700A1, “Methods for Isolating Tumor-Specific Immune Cells from a Subject for Adoptive Cell Therapy and Cancer Vaccines” (CRITITECH, INC., priority 2018, published 2019).
Values after ≈ are worked out from the molar mass of the structure shown. Values joined by “and” are separate entries in the source; they are usually repeats but may differ in a detail not shown here. Identical values can stand only once. Marks after values point to notes of the source that are not given here.

Tests used:
[1] = test system: human renal cell adenocarcinoma (786-O cell line); assay: Renal cell adenocarcinoma xenograft: histology and IHC (viable carcinoma size, necrosis, lymphohistiocytic infiltrate); format: in vivo, Sprague-Dawley Rag2; Il2rg null (SRG®) rat
Description: Microscopic Examination: Tissues fixed with 10% NBF were embedded in paraffin. Each tumor was cut into 2-3 pieces and embedded and sectioned together.

[2] = test system: immune cells (CD45+, CD4+, CD8+, Treg, MDSC, M1 and M2 macrophages) in tumor tissue; assay: Renca study: flow cytometry of immune cells in tumor tissue; format: in vivo, female BALB/c mice; details: individual animals, IV docetaxel group
Experimental: Organ Collection: Tumor (divide into 2 parts). […] Sent to laboratory for IHC staining. Part 2: preservation—processed to single cell suspension, shipping condition—4° C. (wet ice). Retained at CRL-NC for flow cytometry. See Flow panel in Table 40 below. Tumor preservation for early euthanasia in Groups 2-10: Excised tumor and surrounding area from the mammary fat pad area (cranial) to just past tumor (caudal). The region included the inguinal lymph node. Sectioned this sample every 4 mm from the cranial to caudal end and enclosed in separate cassettes labeled in order.
(§1) Peripheral blood and tumor tissue were collected for analysis via flow cytometry. Cell types analyzed included T-Cells: CD4+, CD8+(Tumor Suppression); Treg (Tumor Promotion); M1 Macrophages (Tumor Suppression); M2 Macrophages (Tumor Promotion); and […].

[3] = test system: human renal cell adenocarcinoma (786-O cell line); assay: Rat xenograft model of human renal cell adenocarcinoma: tumor volume, body weight, observations; format: in vivo, Sprague-Dawley Rag2; Il2rg null (SRG®) rat; details: IV docetaxel, 3 weekly cycles
[4] = test system: immune cells (CD45+, CD4+, CD8+, Treg, MDSC, M1 and M2 macrophages) in blood; assay: Renca study: flow cytometry of immune cells in blood; format: in vivo, female BALB/c mice; details: IV Docetaxel, individual animals
Experimental: Blood Collection: Collected full volume blood by terminal cardiac puncture under isoflurane anesthesia. Processed blood for: Whole Blood: anti-coagulant—K2EDTA, preservation—Cooled 4° C., shipping condition—4° C. (wet ice). Retained at CRL-NC for flow cytometry. See Flow panel in Table 40 below.
as §1

[5] = test system: UM-UC-3 bladder cancer cell line (ATCC-CRL-1749) tumors; assay: Human bladder cancer (UM-UC-3) mouse xenograft study: tumor volume, body weight, observations; format: in vivo, Hsd:Athymic Nude-Foxnlnu nude mice
Experimental: Tumor volume was determined with calipers. […] Animals were weighed 2×/week.
At day 18 after tumor implant, when average tumor size was between 50-325 mm^3, animals were sorted into five groups with equal average tumor sizes and were treated as shown in Table 25 below.
The second treatments (2nd cycle) occurred 7 days following first treatment (1st cycle) and third treatments (3rd cycle) occurred 14 days following the first treatment. The docetaxel solution IV was administered via the tail vein.
Vehicle (Control): Diluted 1 ml of the 1% Polysorbate 80/8% Ethanol in normal saline (0.9% Sodium Chloride for Injection) reconstitution solution with 1.5 mL of normal saline (0.9% Sodium Chloride for Injection, USP). […] Vigorously hand shook the vial with inversions for 1 minute. […] Allowed the suspension to sit undisturbed for at least 5 minutes to reduce entrapped air and foam. […] Vortexed to mix.

[6] = test system: Renca syngeneic renal carcinoma
Description: Animals were monitored as a group. […] When the endpoint was reached, all the animals were euthanized. […]

[7] = test system: Renca syngeneic renal carcinoma; assay: Renca syngeneic xenograft study: secondary tumor growth (groups 8-10); format: in vivo, female BALB/c mice; details: IV docetaxel doses
Experimental: The schedule in Table 39 was followed.
Cell Injection Volume: 0.1 mL/mouse. Age at Start Date: 8 to 12 weeks. […] Body Weight: 5/2 then tiwk to end. Caliper Measurement: tiwk to end. Double caliper measurements were performed for Groups 8-10. […] The group was not euthanized and recovery was allowed.
Endpoints: Groups 1-7: Endpoint TGI. Animals were monitored as a group.

[8] = test system: UM-UC-3 bladder cancer cell line (ATCC-CRL-1749) tumors; assay: Bladder cancer xenograft: histology and IHC (viable carcinoma size, necrosis, macrophage infiltrate, TLS, necropsy volume); format: in vivo, Hsd:Athymic Nude-Foxnlnu nude mice
[9] = Solubility of the active in receptor fluid; format: physicochemical; details: 96 wt % PBS pH 7.4 and 4 wt % HPBCD
Experimental: The receptor fluid was degassed by filtering the receptor fluid through a ZapCap CR 0.2 μm membrane while pulling vacuum. The filtered receptor fluid was stirred for an additional 20 minutes while maintaining vacuum to ensure complete degassing.

[10] = IV Docetaxel 3 cycles, 2 animals
[11] = IV docetaxel 3 cycles, two cases

For `CC(=O)O[C@@]12CO[C@@H]1C[C@H](O)[C@@]1(C)C(=O)[C@H](O)C3=C(C)[C@@H](OC(=O)[C@H](O)[C@@H](NC(=O)OC(C)(C)C)c4ccccc4)C[C@@](O)([C@@H](OC(=O)c4ccccc4)[C@H]21)C3(C)C` [Doce], the “Number of animals with <5% of tissue showing necrosis” value ([1]; IV docetaxel, 2 animals) was 2 and the “Lymphohistiocytic infiltrate density: number of animals graded Mild” value ([1]; IV docetaxel, 2 animals, H/E and CD11b IHC) was 2.
For `CC(=O)O[C@@]12CO[C@@H]1C[C@H](O)[C@@]1(C)C(=O)[C@H](O)C3=C(C)[C@@H](OC(=O)[C@H](O)[C@@H](NC(=O)OC(C)(C)C)c4ccccc4)C[C@@](O)([C@@H](OC(=O)c4ccccc4)[C@H]21)C3(C)C` [docetaxel], the “CD8 (% of CD45)” value [2] was 0.75% and 0.5% and 0.28% and 0.31% (2×) and 0.061% and 0.32% and 0.45% and 0.81% and 0.33%, the “CD8 Count” value [2] was 33 and 40 and 26 and 193 and 9 and 145 and 36 and 214 and 137 and 270 and the “CD45 (% of Live)” value [2] was 38.2% and 42.8% and 52.7% and 68.9% and 74.1% and 57.8% and 32.5% and 63.3% and 73% and 67.2%. For the same compound, the “CD45 Count” value [2] was 4375 and 8052 and 9275 and 62614 and 14728 and 45332 and 8088 and 26310 and 41555 and 86029, the “Conv CD4 (% of CD45)” value [2] was 1.23% and 1.15% and 1.51% and 0.44% and 0.16% and 0.58% and 0.62% and 2.55% and 1.65% and 0.59% and the “Conv CD4 Count” value [2] was 54 and 93 and 140 and 275 and 23 and 265 and 50 and 670 and 687 and 509. The “Live Count” value [2] was 11443 and 18796 and 17590 and 90940 and 19863 and 78365 and 24901 and 41595 and 56947 and 128055, the “M1 Mac (% of CD45)” value [2] was 10.5% and 6.97% and 8.59% and 8.44% and 3.34% and 9.16% and 8.65% and 7.47% and the “M1 Mac Count” value [2] was 460 and 561 and 797 and 5285 and 492 and 4154 and 700 and 3186 and 5446 and 6428. The “M2 Mac (% of CD45)” value [2] was 28% and 25.2% and 18.6% and 25.3% and 2.66% and 54.1% and 8.62% and 26.9% and 52.8% and 67.2%, the “M2 Mac Count” value [2] was 1223 and 2030 and 1727 and 15846 and 392 and 24543 and 697 and 7074 and 21953 and 57825 and the “MDSC (% of CD45)” value [2] was 25.1% and 32.8% and 42.5% and 44% and 83.3% and 20% and 70.4% and 37.3% and 10.4%. The “MDSC Count” value [2] was 1098 and 2644 and 3940 and 27578 and 12265 and 9063 and 5696 and 9821 and 4302 and 11067, the “Treg (% of CD45)” value [2] was 1.58% and 0.55% and 0.32% and 0.62% and 0.16% and 0.54% and 0.21% and 1.05% and 0.42% and 0.6% and the “Treg Count” value [2] was 69 and 44 and 30 and 386 and 23 and 244 and 17 and 276 and 176 and 520. For the same compound, the “tumor growth compared to vehicle control” value [3] was “partial tumor growth inhibition”, the “histology vs vehicle control (H&E)” value ([1]; Docetaxel (IV) 3 cycles, female rat) was “no difference” and the “Number of animals with residual viable carcinoma >10 mm on slide” value ([1]; IV docetaxel, 2 animals) was 2. The “CD8 (% of CD45)” value [4] was 1.18 % of CD45 and 1.46 % of CD45 and 1.58 % of CD45 and 1.55 % of CD45 and 1.59 % of CD45 and 0.55 % of CD45 and 1.28 % of CD45 and 1.03 % of CD45 and 1.02 % of CD45 and 0.73 % of CD45, the “CD8 Count” value [4] was 17438 and 12556 and 18524 and 4199 and 7615 and 8711 and 14504 and 9765 and 8882 and 12561 and the “CD45 (% of Live)” value [4] was 98.5 % of Live and 80.9 % of Live and 97.9 % of Live and 95.7 % of Live (2×) and 96.1 % of Live and 95.5 % of Live and 95.6 % of Live and 97 % of Live and 96.4 % of Live. The “CD45 Count” value [4] was 1360000 (2×) and 1180000 and 1200000 and 1010000 and 348468 and 983000 and 1340000 and 1210000 and 968000, the “Conv CD4 (% of CD45)” value [4] was 2.49 % of CD45 and 3.95 % of CD45 and 3.1 % of CD45 and 2.64 % of CD45 and 2.38 % of CD45 and 1.58 % of CD45 and 3.25 % of CD45 and 1.32 % of CD45 and 2.46 % of CD45 and 1.77 % of CD45 and the “Conv CD4 Count” value [4] was 44244 and 33048 and 31633 and 9629 and 12646 and 22949 and 34177 and 22034 and 21457 and 27808. The “Live Count” value [4] was 1420000 and 1220000 and 1250000 and 1030000 and 350478 and 1390000 and 1010000 and 1360000 and 1260000 and 997000, the “M1 Mac (% of CD45)” value [4] was 15.1 % of CD45 and 9.39 % of CD45 and 12.3 % of CD45 and 6.95 % of CD45 and 7.96 % of CD45 and 6.79 % of CD45 and 9.93 % of CD45 and 10.7 % of CD45 and 9.78 % of CD45 and 9.15 % of CD45 and the “M1 Mac Count” value [4] was 135234 and 150642 and 83214 and 124451 and 18526 and 145555 and 84022 and 122157 and 110868 and 43948. For the same compound, the “M2 Mac (% of CD45)” value [4] was 0.12 % of CD45 and 0.054 % of CD45 and 0.066 % of CD45 and 0.14 % of CD45 and 0.17 % of CD45 and 0.2 % of CD45 and 0.056 % of CD45 and 0.48 % of CD45 and 0.07 % of CD45 and 0.19 % of CD45, the “M2 Mac Count” value [4] was 765 and 815 and 1633 and 582 and 373 and 875 and 257 and 2069 and 2323 and 512 and the “MDSC (% of CD45)” value [4] was 72.7 % of CD45 and 64.8 % of CD45 and 63.3 % of CD45 and 75.9 % of CD45 and 72.8 % of CD45 and 79 % of CD45 and 73.4 % of CD45 and 72.5 % of CD45 and 77.7 % of CD45 and 76.3 % of CD45. For the same compound, the “MDSC Count” value [4] was 1000000 (2×) and 871000 and 909000 and 742000 and 255851 and 734000 (2×) and 1010000 and 925000, the “Treg (% of CD45)” value [4] was 0.092 % of CD45 and 0.22 % of CD45 and 0.13 % of CD45 and 0.073 % of CD45 and 0.035 % of CD45 and 0.078 % of CD45 and 0.087 % of CD45 and 0.047 % of CD45 and 0.1 % of CD45 and 0.071 % of CD45 and the “Treg Count” value [4] was 1182 and 578 and 872 and 461 and 222 and 871 and 1300 and 870 and 856 and 992. For the same compound, the tumor volumes ([5]; Docetaxel IV 30 mg/kg, 3 cycles, 61 days) was “decreased initially”, the “effectiveness by initial tumor size” value ([5]; Docetaxel IV 3 cycles) was “somewhat effective at treating small tumors, but not very effective in treating large tumors” and the “initial animal weight loss” value ([5]; Docetaxel IV 3 cycles vs nDoce IT 1, 2, 3 cycles) was “generally greater”. The “signs of peripheral neuropathy” value ([5]; Docetaxel IV 3 cycles vs nDoce IT 3 cycles) was “greater signs of peripheral neuropathy”, the “tumor volume compared to vehicle” value ([6]; IV docetaxel Day 1 (10 mg/kg) and Day 11 (5 mg/kg)) was “No difference” and the “toxicity leading to modified administration schedule” value ([6]; mouse, in vivo, iv) was “systemic toxicity”. For the same compound, the “growth rate of the secondary Renca tumors” value [7] was “did not reduce the growth rate”, the “general histological observation (H&E)” value ([8]; Docetaxel Solution IV 3 cycles) was “many viable appearing tumor masses with some macrophage and occasional lymphocytic response along with some tumor necrosis” and the “animals with 11-50% of tumor showing necrosis” value [8, 10] was 1. For the same compound, the “animals with 50-90% of tumor showing necrosis” value [8, 10] was 1, the “animals with maximum size of viable invasive carcinoma on the slide >10 mm” value [8, 10] was 2* and the “Macrophage infiltrate density: number of animals graded Mild” value ([8]; IV Docetaxel 3 cycles, surrounding non-neoplastic tissue, H&E and CD68 IHC) was 2. The TLSs [8, 11] was “no TLSs present” and the “tumor masses, maximum dimension on the slide” value [8, 11] was 11 mm and 15 mm.
For `CC(=O)O[C@H]1C(=O)[C@@]2(C)[C@H]([C@H](OC(=O)c3ccccc3)[C@]3(O)C[C@H](OC(=O)[C@H](O)[C@@H](NC(=O)c4ccccc4)c4ccccc4)C(C)=C1C3(C)C)[C@]1(OC(C)=O)CO[C@@H]1C[C@@H]2O` [paclitaxel], the “solubility in the receptor fluid” value [9] was about 0.4 µg/mL (≈ 0.468 µM).
